Measurements taken from US20190161736A1, “CELL CULTURE” (National University of Singapore, priority 2016, published 2019).
Like-named read-outs stand apart in the source and are kept apart here.

How the values were obtained:
[1] = tested on: MCF-7 breast cancer cell line clusters; assay: Microwell-based CTC cluster assay, doxorubicin screening on MCF-7 clusters (live/dead staining); format: cell-based; details: Homo sapiens, MCF7, normoxia, 72 hrs exposure from Day 3, viability by Calcein-AM/EtBr
Experimental: Cell Culture of MCF-7 Cancer Cell Line MCF-7 (HTB-22TM, ATCC, USA), a human breast adenocarcinoma cell line, was first used to mimic CTC cluster formation. Cell lines were maintained in supplemented high-glucose Dulbecco's modified Eagle's medium (DMEM) (Invitrogen, USA) with 10% fetal bovine serum (FBS) (Invitrogen, USA) together with 1% penicillin-streptomycin (Invitrogen, USA). Cultures were kept at 37° C. in a humidified atmosphere containing 5% (v/v) CO2 till 80% confluence. Cells were cultured in sterile 25 cm^2 flasks (BD Bioscience, USA) and sub-cultivated two times a week with media replaced every 48 h. Sub-confluent monolayers were dissociated using 0.01% otrypsin and 5.3 mM EDTA solution (Lonza, Switzerland).
The closed system was then incubated at 37° C., 5% CO2 till drug treatment at Day 3 or Day 11 for MCF-7 cultures and clinical sample cultures respectively.
A stock solution was prepared in 100% DMSO and subsequently was diluted in supplemented DMEM (1 μl to 1 ml of media), resulting in ˜0.1% of DMSO concentration (1 μM drug concentration), which has negligible effects on cells.
To establish the IC50 values, z-stacks images of 25 microwells from each channel were obtained with a confocal microscope.

[2] = tested on: clinical human primary cancer cells cultured from blood samples (CD45- cells); assay: Microwell-based CTC cluster assay, doxorubicin screening on clusters cultured from breast cancer patient blood samples; details: for IC50 / viability at 1 µM: Homo sapiens; for IC50: 72 hrs exposure; for viability at 1 µM: 72 hrs
MCF-7 monolayer cultures = details: monolayer cultures with lower cell counts, <10k cells per ml; read-out: IC50 value (previous studies); cited from earlier work

`COc1cccc2c1C(=O)c1c(O)c3c(c(O)c1C2=O)C[C@@](O)(C(=O)CO)C[C@@H]3O[C@H]1C[C@H](N)[C@H](O)[C@H](C)O1` [doxorubicin, Doxorubicin] showed an IC50 [1] of 0.78 ± 0.02 µM, an IC50 ([2]; 72 h, read-out: IC50 value, sample CES021, Post treatment) of over 1 µM and an IC50 ([2]; 72 h, read-out: IC50 value, sample CES053, Post treatment) of 0.34 µM. For the same molecule, the IC50 ([2]; 72 h, read-out: IC50 value, sample P2B28, Post treatment) was over 1 µM, the IC50 ([2]; 72 h, read-out: IC50 value, sample P2B29, Post treatment) was 0.86 µM and the viability at 1 µM ([2]; 72 h, read-out: Percentage of viable CD45-cells, CES21 Post-treatment, 1.6% of drug (1 μM)) was 96.4%. The viability at 1 µM ([2]; 72 h, read-out: Percentage of viable CD45-cells, CES21 Post-treatment, 10.9% of drug (1 μM)) was 94.9%, the viability at 1 µM ([2]; 72 h, read-out: Percentage of viable CD45-cells, CES21 Post-treatment, 34.4% of drug (1 μM)) was 92% and the viability at 1 µM ([2]; 72 h, read-out: Percentage of viable CD45-cells, CES21 Post-treatment, 65.6% of drug (1 μM)) was 78.6%. The viability at 1 µM ([2]; 72 h, read-out: Percentage of viable CD45-cells, CES21 Post-treatment, 89.1% of drug (1 μM)) was 71.1%, the viability at 1 µM ([2]; 72 h, read-out: Percentage of viable CD45-cells, CES21 Post-treatment, 98.4% of drug (1 μM)) was 66.9% and the viability at 1 µM ([2]; 72 h, read-out: Percentage of viable CD45-cells, CES21 Post-treatment, 100.0% of drug (1 μM)) was 67.9%. The viability at 1 µM ([2]; 72 h, read-out: Percentage of viable CD45-cells, CES053 Post-treatment, 1.6% of drug (1 μM)) was 51.7%, the viability at 1 µM ([2]; 72 h, read-out: Percentage of viable CD45-cells, CES053 Post-treatment, 10.9% of drug (1 μM)) was 51.4% and the viability at 1 µM ([2]; 72 h, read-out: Percentage of viable CD45-cells, CES053 Post-treatment, 34.4% of drug (1 μM)) was 48%. The viability at 1 µM ([2]; 72 h, read-out: Percentage of viable CD45-cells, CES053 Post-treatment, 65.6% of drug (1 μM)) was 52.2%, the viability at 1 µM ([2]; 72 h, read-out: Percentage of viable CD45-cells, CES053 Post-treatment, 89.1% of drug (1 μM)) was 42.8% and the viability at 1 µM ([2]; 72 h, read-out: Percentage of viable CD45-cells, CES053 Post-treatment, 98.4% of drug (1 μM)) was 41%. It also gave a viability at 1 µM ([2]; 72 h, read-out: Percentage of viable CD45-cells, CES053 Post-treatment, 100.0% of drug (1 μM)) of 39.8%, a viability at 1 µM ([2]; 72 h, read-out: Percentage of viable CD45-cells, P2B28 Post-treatment, 1.6% of drug (1 μM)) of 39.3% and a viability at 1 µM ([2]; 72 h, read-out: Percentage of viable CD45-cells, P2B28 Post-treatment, 10.9% of drug (1 μM)) of 32.6%. For the same molecule, the viability at 1 µM ([2]; 72 h, read-out: Percentage of viable CD45-cells, P2B28 Post-treatment, 34.4% of drug (1 μM)) was 39.2%, the viability at 1 µM ([2]; 72 h, read-out: Percentage of viable CD45-cells, P2B28 Post-treatment, 65.6% of drug (1 μM)) was 28.8% and the viability at 1 µM ([2]; 72 h, read-out: Percentage of viable CD45-cells, P2B28 Post-treatment, 89.1% of drug (1 μM)) was 27.6%. For the same molecule, the viability at 1 µM ([2]; 72 h, read-out: Percentage of viable CD45-cells, P2B28 Post-treatment, 98.4% of drug (1 μM)) was 24.4%, the viability at 1 µM ([2]; 72 h, read-out: Percentage of viable CD45-cells, P2B28 Post-treatment, 100.0% of drug (1 μM)) was 0% and the viability at 1 µM ([2]; 72 h, read-out: Percentage of viable CD45-cells, P2B29 Post-treatment, 1.6% of drug (1 μM)) was 73.6%. It also gave a viability at 1 µM ([2]; 72 h, read-out: Percentage of viable CD45-cells, P2B29 Post-treatment, 10.9% of drug (1 μM)) of 56.2%, a viability at 1 µM ([2]; 72 h, read-out: Percentage of viable CD45-cells, P2B29 Post-treatment, 34.4% of drug (1 μM)) of 18.5% and a viability at 1 µM ([2]; 72 h, read-out: Percentage of viable CD45-cells, P2B29 Post-treatment, 65.6% of drug (1 μM)) of 7.7%. The viability at 1 µM ([2]; 72 h, read-out: Percentage of viable CD45-cells, P2B29 Post-treatment, 89.1% of drug (1 μM)) was 4.1%, the viability at 1 µM ([2]; 72 h, read-out: Percentage of viable CD45-cells, P2B29 Post-treatment, 98.4% of drug (1 μM)) was 1.1% and the viability at 1 µM ([2]; 72 h, read-out: Percentage of viable CD45-cells, P2B29 Post-treatment, 100.0% of drug (1 μM)) was 0.4%. It also gave an IC50 ([2]; read-out: IC50 value, sample CTB039, Pre-treatment) of 0.85 µM, an IC50 ([2]; read-out: IC50 value, sample P2B29, Pre-treatment) of 0.94 ± 0.04 µM and a viability at 1 µM ([2]; read-out: Percentage of viable CD45-cells, CTB039 Pre-treatment, 1.6% of drug (1 μM)) of 85.5%. For the same molecule, the viability at 1 µM ([2]; read-out: Percentage of viable CD45-cells, CTB039 Pre-treatment, 10.9% of drug (1 μM)) was 81.6%, the viability at 1 µM ([2]; read-out: Percentage of viable CD45-cells, CTB039 Pre-treatment, 34.4% of drug (1 μM)) was 69.7% and the viability at 1 µM ([2]; read-out: Percentage of viable CD45-cells, CTB039 Pre-treatment, 65.6% of drug (1 μM)) was 58.3%. The viability at 1 µM ([2]; read-out: Percentage of viable CD45-cells, CTB039 Pre-treatment, 89.1% of drug (1 μM)) was 48.3%, the viability at 1 µM ([2]; read-out: Percentage of viable CD45-cells, CTB039 Pre-treatment, 98.4% of drug (1 μM)) was 44.2% and the viability at 1 µM ([2]; read-out: Percentage of viable CD45-cells, CTB039 Pre-treatment, 100.0% of drug (1 μM)) was 40.8%. The viability at 1 µM ([2]; read-out: Percentage of viable CD45-cells, P2B29 Pre-treatment, 1.6% of drug (1 μM)) was 96.6%, the viability at 1 µM ([2]; read-out: Percentage of viable CD45-cells, P2B29 Pre-treatment, 10.9% of drug (1 μM)) was 86.4% and the viability at 1 µM ([2]; read-out: Percentage of viable CD45-cells, P2B29 Pre-treatment, 34.4% of drug (1 μM)) was 26.2%. The viability at 1 µM ([2]; read-out: Percentage of viable CD45-cells, P2B29 Pre-treatment, 65.6% of drug (1 μM)) was 3.9%, the viability at 1 µM ([2]; read-out: Percentage of viable CD45-cells, P2B29 Pre-treatment, 89.1% of drug (1 μM)) was 2.6% and the viability at 1 µM ([2]; read-out: Percentage of viable CD45-cells, P2B29 Pre-treatment, 98.4% of drug (1 μM)) was 0.7%. For the same molecule, the viability at 1 µM ([2]; read-out: Percentage of viable CD45-cells, P2B29 Pre-treatment, 100.0% of drug (1 μM)) was 0.4%, the “average correlation coefficient, percentage of microwells with cluster vs concentration of doxorubicin” value ([2]; clinical sample cultures, FIG. 15A) was −0.71 and the “proportion of microwells with presence of macrophage-like cells vs drug concentration” value ([2]; clinical sample cultures, FIG. 15B) was “did not seem to correlate with drug concentration”. For the same molecule, the IC50 (MCF-7 monolayer cultures) was about 0.5 µM.
